Experimental data from patent US9227971B2, “Pyrazolo[1,5-a]pyrimidine compounds as mTOR inhibitors” (Merck Sharp & Dohme Corp., priority 2010, dated 2016).

Tested on: phosphorylated AKT Ser473 (pAKT S473), mTORC2 activity, PC3 cells
Assay: mTOR target engagement assay, immunofluorescent cell-based, pAKT S473 readout (mTORC2 activity)
Conditions: Homo sapiens, PC-3, PC3 cells
Experimental: The target engagement of mTOR kinase inhibitors was evaluated using an immunofluorescent cell-based assay. In this assay, inhibition of mTORC1 activity was measured by the reduction in the level of phosphorylated 4E-BP1^[…] (p4E-BP1 Thr37/46), and inhibition of mTORC2 activity was measured by the reduction of phosphorylated AKT^Ser473 (pAKT S473).
PC3 cells (prostate tumor cell-line that contains a mutation in the tumor suppressor PTEN, that promotes the phosphorylation and activation of AKT and 4E-BP1) were used in the immunofluorescence assay. […] PC3 cells were then treated with 40 μl of the serially diluted test compounds (in 5% fetal bovine serum, F12 medium containing 0.25% DMSO) for ninety minutes at 37° C. The test compound solution was removed, and the plates were washed gently two times with 25 μl phosphate buffered saline (PBS). […] 5% Goat serum in PBS/0.3% Triton was used to block non-specific binding (60 minutes).
The primary antibodies targeting pAKT S473 and p4E-BP1 Thr37/46 were diluted into PBS/0.3% Triton and incubated with the cells overnight at 4° C. […] Plates were washed three times with PBS/0.1% Tween 20 before adding the secondary antibody at a 1:200 dilution.
Finally, the plates were washed three times with PBS/0.1% Tween 20 and the fluorescent intensity was read using an Analyst HT from Molecular Devices.

**Q.** `CC(=O)c1c([C@H]2CC3CC[C@H](C2)N3C(=O)c2nnc[nH]2)nc2c(-c3cnc4c(c3)CCC4O)cnn2c1N` (stereo partly drawn) [Compound 7.60, 1-(5-((1R,3s,5S)-8-(4H-1,2,4-triazole-3-carbonyl)-8-azabicyclo[3.2.1]octan-3-yl)-7-amino-3-(7-hydroxy-6,7-dihydro-5H-cyclopenta[b]pyridin-3-yl)pyrazolo[1,5-a]pyrimidin-6-yl)ethanone] was tested. Which IC50 did it give?
**A.** Its IC50 is 0.1 to 1 µM.

**Q.** How did the IC50 turn out when `CC(=O)c1c(N2CC3CCC(C2)N3C(=O)c2nnc[nH]2)nc2c(-c3ccc(-c4ccccc4)nc3)cnn2c1N` [Compound 8.1, 1-(5-(8-(4H-1,2,4-triazole-3-carbonyl)-3,8-diazabicyclo[3.2.1]octan-3-yl)-7-amino-3-(6-phenylpyridin-3-yl)pyrazolo[1,5-a]pyrimidin-6-yl)ethanone] was run?
**A.** Its IC50 is 0.1 to 1 µM.

**Q.** Which IC50 does the source give for `CC(=O)c1c(N2CC3CCC(C2)N3C(=O)[C@@H](C)O)nc2c(-c3ccc(-c4ccccc4)nc3)cnn2c1N` [Compound 8.2, (2R)-1-(3-(6-acetyl-7-amino-3-(6-phenylpyridin-3-yl)pyrazolo[1,5-a]pyrimidin-5-yl)-3,8-diazabicyclo[3.2.1]octan-8-yl)-2-hydroxypropan-1-one] here?
**A.** Its IC50 is 0.1 to 1 µM.

**Q.** How did the IC50 turn out when `CC(=O)c1c(N2CC3CCC2CN3C(=O)c2nnc[nH]2)nc2c(-c3ccc(-c4ccccc4)nc3)cnn2c1N` (stereo not drawn) [Compound 8.3, 1-(5-(5-(4H-1,2,4-triazole-3-carbonyl)-2,5-diazabicyclo[2.2.2]octan-2-yl)-7-amino-3-(6-phenylpyridin-3-yl)pyrazolo[1,5-a]pyrimidin-6-yl)ethanone] was run?
**A.** The IC50 was 0.1 to 1 µM.

**Q.** With `CC(=O)c1c(N2CC3CCC2CN3C(=O)[C@@H](C)O)nc2c(-c3ccc(-c4ccccc4)nc3)cnn2c1N` (stereo partly drawn) [Compound 8.4, (2R)-1-(5-(6-acetyl-7-amino-3-(6-phenylpyridin-3-yl)pyrazolo[1,5-a]pyrimidin-5-yl)-2,5-diazabicyclo[2.2.2]octan-2-yl)-2-hydroxypropan-1-one] as the compound, how does the IC50 read?
**A.** The IC50 was 1 to 10 µM.

**Q.** Which IC50 does the source give for `CCOC(=O)Nc1ccc(-c2cnn3c(N)c(C(C)=O)c([C@@H]4C[C@H]5CC[C@@H](C4)N5C(=O)CO)nc23)cn1` [Compound 8.77, ethyl 5-(6-acetyl-7-amino-5-((1R,3s,5S)-8-(2-hydroxyacetyl)-8-azabicyclo[3.2.1]octan-3-yl)pyrazolo[1,5-a]pyrimidin-3-yl)pyridin-2-ylcarbamate] here?
**A.** Its IC50 is 0.1 to 1 µM.

**Q.** Which IC50 does the source give for `Nc1ncc(-c2cnn3c(N)cc([C@@H]4C[C@H]5CC[C@@H](C4)N5C(=O)c4nnc[nH]4)nc23)cn1` [Compound 8.88, ((1R,3s,5S)-3-(7-amino-3-(2-aminopyrimidin-5-yl)pyrazolo[1,5-a]pyrimidin-5-yl)-8-azabicyclo[3.2.1]octan-8-yl)(4H-1,2,4-triazol-3-yl)methanone] here?
**A.** Its IC50 is greater than 10 µM.

**Q.** With `CS(=O)(=O)c1c([C@@H]2C[C@H]3CC[C@@H](C2)N3CC(N)=O)nc2c(-c3ccc(-c4ccccc4)nc3)cnn2c1N` [Compound 8.92, 2-((1R,3s,5S)-3-(7-amino-6-(methylsulfonyl)-3-(6-phenylpyridin-3-yl)pyrazolo[1,5-a]pyrimidin-5-yl)-8-azabicyclo[3.2.1]octan-8-yl)acetamide] as the compound, how does the IC50 read?
**A.** The IC50 was 1 to 10 µM.

**Q.** Which IC50 does the source give for `CC(=O)c1c([C@@H]2C[C@H]3CC[C@@H](C2)N3C(=O)c2nnc[nH]2)nc2c(-c3cnc(C(N)=O)nc3)cnn2c1N` [Compound 8.97, 5-(5-((1R,3s,5S)-8-(4H-1,2,4-triazole-3-carbonyl)-8-azabicyclo[3.2.1]octan-3-yl)-6-acetyl-7-aminopyrazolo[1,5-a]pyrimidin-3-yl)pyrimidine-2-carboxamide] here?
**A.** Its IC50 is 1 to 10 µM.

Same assay, conditions: Homo sapiens, PC-3, PC3 cells, compound treatment ninety minutes at 37° C.

**Q.** Which IC50 does the source give for `Cc1ccc(-c2cnn3c(N)c(C4CC4)c([C@@H]4C[C@H]5CC[C@@H](C4)N5C(=O)c4nnc[nH]4)nc23)cn1` [Compound 4.16, ((1R,3s,5S)-3-(7-amino-6-cyclopropyl-3-(6-methylpyridin-3-yl)pyrazolo[1,5-a]pyrimidin-5-yl)-8-azabicyclo[3.2.1]octan-8-yl)(4H-1,2,4-triazol-3-yl)methanone] here?
**A.** Its IC50 is 0.1 to 1 µM.

**Q.** For `Cn1cnc(-c2ccc(-c3cnn4c(N)c(C5CC5)c([C@@H]5C[C@H]6CC[C@@H](C5)N6C(=O)c5nnc[nH]5)nc34)cn2)c1` [Compound 4.23, ((1R,3a,5S)-3-(7-amino-6-cyclopropyl-3-(6-(1-methyl-1H-imidazol-4-yl)pyridin-3-yl)pyrazolo[1,5-a]pyrimidin-5-yl)-8-azabicyclo[3.2.1]octan-8-yl)(4H-1,2,4-triazol-3-yl)methanone], which IC50 is on record?
**A.** Its IC50 is 1 to 10 µM.

**Q.** `CC(=O)c1c([C@@H]2C[C@H]3CC[C@@H](C2)N3C(=O)c2cnn[nH]2)nc2c(-c3ccc(C4(O)CCC4)nc3)cnn2c1N` [Compound 7.19, 1-(5-((1R,3s,5S)-8-(1H-1,2,3-triazole-5-carbonyl)-8-azabicyclo[3.2.1]octan-3-yl)-7-amino-3-(6-(1-hydroxycyclobutyl)pyridin-3-yl)pyrazolo[1,5-a]pyrimidin-6-yl)ethanone] was tested. Which IC50 did it give?
**A.** The IC50 was 0.1 to 1 µM.

Same assay, conditions: Homo sapiens, PC-3, Table 6-1; PC3 cells

**Q.** `CC(=O)c1c([C@@H]2C[C@H]3CC[C@@H](C2)N3C(=O)[C@H](C)O)nc2c(-c3ccc(-c4ncc[nH]4)nc3)cnn2c1N` [Compound 6.8, (S)-1-((1R,3R,5S)-3-(3-(6-(1H-imidazol-2-yl)pyridin-3-yl)-6-acetyl-7-aminopyrazolo[1,5-a]pyrimidin-5-yl)-8-azabicyclo[3.2.1]octan-8-yl)-2-hydroxypropan-1-one] was tested. Which IC50 did it give?
**A.** Its IC50 is 0.001 to 0.1 µM.

**Q.** With `CC(=O)OCC(=O)N1[C@@H]2CC[C@H]1C[C@H](c1nc3c(-c4ccc(-c5ncc[nH]5)nc4)cnn3c(N)c1C(C)=O)C2` [Compound 6.9, 2-((1R,3s,5S)-3-(3-(6-(1H-imidazol-2-yl)pyridin-3-yl)-6-acetyl-7-aminopyrazolo[1,5-a]pyrimidin-5-yl)-8-azabicyclo[3.2.1]octan-8-yl)-2-oxoethyl acetate] as the compound, how does the IC50 read?
**A.** Its IC50 is 0.1 to 1 µM.

**Q.** How did the IC50 turn out when `COCCOCC(=O)N1[C@@H]2CC[C@H]1C[C@H](c1nc3c(-c4ccc(-c5ncc[nH]5)nc4)cnn3c(N)c1C(C)=O)C2` [Compound 6.13, 1-((1R,3s,5S)-3-(3-(6-(1H-imidazol-2-yl)pyridin-3-yl)-6-acetyl-7-aminopyrazolo[1,5-a]pyrimidin-5-yl)-8-azabicyclo[3.2.1]octan-8-yl)-2-(2-methoxyethoxy)ethanone] was run?
**A.** The IC50 was 0.001 to 0.1 µM.

**Q.** How did the IC50 turn out when `CC(=O)c1c([C@@H]2C[C@H]3CC[C@@H](C2)N3C(=O)c2cc(N)n[nH]2)nc2c(-c3ccc(-c4ncc[nH]4)nc3)cnn2c1N` [Compound 6.17, 1-(3-(6-(1H-imidazol-2-yl)pyridin-3-yl)-7-amino-5-((1R,3s,5S)-8-(3-amino-1H-pyrazole-5-carbonyl)-8-azabicyclo[3.2.1]octan-3-yl)pyrazolo[1,5-a]pyrimidin-6-yl)ethanone] was run?
**A.** Its IC50 is 0.001 to 0.1 µM.

**Q.** `CC(=O)c1c([C@@H]2C[C@H]3CC[C@@H](C2)N3C(=O)CO)nc2c(-c3cnc(-c4ncc[nH]4)c(F)c3)cnn2c1N` [Compound 6.28, 1-((1R,3s,5S)-3-(6-acetyl-7-amino-3-(5-fluoro-6-(1H-imidazol-2-yl)pyridin-3-yl)pyrazolo[1,5-a]pyrimidin-5-yl)-8-azabicyclo[3.2.1]octan-8-yl)-2-hydroxyethanone] was tested. Which IC50 did it give?
**A.** The IC50 was 0.001 to 0.1 µM.

**Q.** Which IC50 does the source give for `Nc1c(C2CC2)c([C@@H]2C[C@H]3CC[C@@H](C2)N3C(=O)CO)nc2c(-c3cnc(-c4ncc[nH]4)c(F)c3)cnn12` [Compound 6.29, 1-((1R,3s,5S)-3-(7-amino-6-cyclopropyl-3-(5-fluoro-6-(1H-imidazol-2-yl)pyridin-3-yl)pyrazolo[1,5-a]pyrimidin-5-yl)-8-azabicyclo[3.2.1]octan-8-yl)-2-hydroxyethanone] here?
**A.** The IC50 was 0.1 to 1 µM.

**Q.** Which IC50 does the source give for `CC(=O)c1c([C@@H]2C[C@H]3CC[C@@H](C2)N3C(=O)CO)nc2c(-c3cnc(-c4ncc[nH]4)c(C)c3)cnn2c1N` [Compound 6.33, 1-((1R,3s,5S)-3-(3-(6-(1H-imidazol-2-yl)-5-methylpyridin-3-yl)-6-acetyl-7-aminopyrazolo[1,5-a]pyrimidin-5-yl)-8-azabicyclo[3.2.1]octan-8-yl)-2-hydroxyethanone] here?
**A.** Its IC50 is 1 to 10 µM.

**Q.** With `CC(=O)c1c([C@@H]2C[C@H]3CC[C@@H](C2)N3C(=O)C(C)(C)CO)nc2c(-c3ccc(-c4ncc[nH]4)nc3)cnn2c1N` [Compound 6.45, 1-((1R,3s,5S)-3-(3-(6-(1H-imidazol-2-yl)pyridin-3-yl)-6-acetyl-7-aminopyrazolo[1,5-a]pyrimidin-5-yl)-8-azabicyclo[3.2.1]octan-8-yl)-3-hydroxy-2,2-dimethylpropan-1-one] as the compound, how does the IC50 read?
**A.** The IC50 was 0.1 to 1 µM.

Same assay, conditions: Table 7-2; PC3 cells

**Q.** For `CS(=O)(=O)c1c([C@@H]2C[C@H]3CC[C@@H](C2)N3C(=O)CO)nc2c(-c3ccc(C4(O)CCC4)nc3)cnn2c1N` [Compound 7.28, 1-((1R,3s,5S)-3-(7-amino-3-(6-(1-hydroxycyclobutyl)pyridin-3-yl)-6-(methylsulfonyl)pyrazolo[1,5-a]pyrimidin-5-yl)-8-azabicyclo[3.2.1]octan-8-yl)-2-hydroxyethanone], which IC50 is on record?
**A.** Its IC50 is 0.1 to 1 µM.
